# According to patent US4965280A, “Antifungal carbinols” (E. I. Du Pont de Nemours and Company, priority 1989, dated 1990):
# Where a name gives a salt, the structure may show the parent alone. Read-outs that look alike come from different tables or passages of the source.
# Experiments:
# [1] = test system: Candida albicans ATCC 11651; test: In vivo systemic Candida infection in mice, primary assay; design: species or system Candida albicans; CF-1 female mice; details: Candida albicans, read-out: % Survival
# Excerpt: The […] activity of test compounds is based on the percent (%) survival of infected animals receiving test or standard agent compared to that in an infected untreated group (Table 6). The in vivo assays are chronic systemic infections lethal to mice within 7 days post infection, [J. Barnes, et al. Lab Investigation, 49 460-467 (1963), and T. Rogers and E. Balish, Infection and Immunity, 14 33-38 (1976)].
# Candida albicans ATCC 11651, from a frozen stock culture (10^9 organisms/ml) maintained at -70°, is diluted in saline to 1×10^7 organisms/ml and 0.2 ml inoculated intravenously (caudal vein) into 20.0 gm CF-1 female mice (Charles River).
# Test compounds are routinely solubilized in 0.25% (w/v) methylcellulose (Methocel®) but for those compounds difficult to solubilize 10% (w/v) Emulophor® (EL620 GAF Corp.) is used. The standard antifungal agents, amphotericin B (Fungizone®) in water and ketoconazole (Nizoral®) in Methocel®, are administered at 1.0 mg/kg/day and 150 mg/kg/day, respectively.
# In a primary assay, mice (10 per group) are infected with C. albicans, and receive test compounds at 50 or 150 mg/kg/day via the subcutaneous route. Animals are dosed with the test compound at 1 and 6 hour post-infection and then once daily for the next three days. Survival of mice in each group is recorded for 21 days.
# Compounds which protect ≥70% of the infected animals for 14 days at a dose 150 mg/kg/day or less are viewed as active.
# [2] = test system: Aspergillus fumigatus ATCC 28214; test: In vitro antifungal MIC, microtiter broth dilution; details: for MIC: Aspergillus fumigatus, ATCC28214, 24 h, read-out: MIC values, A. fumigatus, 30°, 24 hours; for MIC values, A. fumigatus: 30°, 24 hours
# [3] = test system: Candida albicans ATCC 11651; test: In vitro antifungal MIC, microtiter broth dilution; details: for MIC: Candida albicans, ATCC11651, 24 h, read-out: MIC values, C. albicans, 30°, 24 hours; for MIC values, C. albicans: 30°, 24 hours
# Rhizoctonia solani = test: Example F rice sheath blight; type: in vivo; details: Rhizoctonia solani, 144 h, read-out: disease control rating, Ex. F
# Experimental: (§1) The test compounds were dissolved in acetone in an amount equal to 6% of the final volume and then suspended at a concentration of 100 or 20 ppm in purified water containing 250 ppm of the surfactant TREM 014 (polyhydric alcohol esters). This suspension was sprayed to the point of run-off on rice seedlings.
# Venturia inaequalis = test: Example A apple scab; type: in vivo; details: 20 PPM, read-out: disease control rating, Ex. A
# Experimental: as §1, with “apple seedings.” for “rice seedlings.”
# Pyricularia oryzae = test: whole plant or invertebrate; type: in vivo; details: Pyricularia oryzae, 120 h, read-out: disease control rating, Ex. E, 100 PPM
# Botrytis cinerea = test: Example C bean grey mold; type: in vivo; details: Botrytis cinerea, 24 h, read-out: disease control rating, Ex. C
# Experimental: as §1, with “broad bean” for “rice”
# [4] = test system: Erysiphe graminis f. sp. tritici; test: Example D wheat powdery mildew; type: in vivo; details: Blumeria graminis, 144 h; 20 PPM; read-out: disease control rating, Ex. D
# Experimental: as §1, with “wheat” for “rice”
# [5] = test system: Cercosporidium personatum; test: Example B Peanut Late Leafspot; type: in vivo; details: Nothopassalora personata, read-out: disease control rating, Ex. B
# Experimental: as §1, with “peanut” for “rice”
# Puccinia recondita = test: Example G wheat leaf rust; type: in vivo; details: read-out: disease control rating, Ex. G
# Phytophthora infestans = test: whole plant or invertebrate; type: in vivo; details: Phytophthora infestans, in Solanum lycopersicum, read-out: disease control rating, Ex. H, 100 PPM
# Plasmorpara viticola = test: Example I grape downy mildew; type: in vivo; details: read-out: disease control rating, Ex. I
# Experimental: as §1, with “grape” for “rice”
# [6] = ATCC11651, 168 h, 150 mg/kg per day, day 7
# [7] = ATCC11651, 336 h, 150 mg/kg per day, day 14
# [8] = ATCC11651, 504 h, 150 mg/kg per day, day 21
structure (smiles),measurement,setting,value
C=C(c1ccccc1)C(O)(Cn1cncn1)C(F)(F)C(F)(F)C(F)(F)C(F)(F)F (stereo not shown) [Example 55],responders at 150 mg/kg,"[1]; ATCC11651, 168 h",100%
same,responders at 150 mg/kg,"[1]; ATCC11651, 336 h",70%
same,responders at 150 mg/kg,"[1]; ATCC11651, 504 h",50%
C=C(c1ccc(C(C)(C)C)cc1)C(O)(Cn1cncn1)c1ccc(Cl)cc1 (stereo not shown) [Example 117],MIC,[2],100 µg/mL
same,MIC,[3],0.4 µg/mL
same,responders at 150 mg/kg,[1]; [6],60%
same,responders at 150 mg/kg,[1]; [7],0%
same,responders at 150 mg/kg,[1]; [8],0%
C=C(c1cccc(C(F)(F)F)c1)C(O)(Cn1cncn1)c1ccc(F)cc1 (stereo not shown) [Example 725],responders at 150 mg/kg,[1]; [6],90%
same,responders at 150 mg/kg,[1]; [7],90%
same,responders at 150 mg/kg,[1]; [8],40%
C=C(c1ccc(Cl)cc1)C(O)(Cn1cncn1)c1ccc(Cl)cc1Cl (stereo not shown) [26 HCl salt],"MIC values, A. fumigatus",[2],0.4 µg/mL
same,"MIC values, C. albicans",[3],0.03 µg/mL
C=C(c1ccc(Cl)cc1)C(O)(Cn1cncn1)c1cccc(C(F)(F)F)c1 (stereo not shown) [Example 685],MIC,[2],100 µg/mL
same,pest or weed control at 20 ppm,Rhizoctonia solani; 20 PPM,15%
same,pest or weed control at 100 ppm,Rhizoctonia solani,29%
same,pest or weed control at 20 ppm,Venturia inaequalis,57%
same,pest or weed control at 100 ppm,Pyricularia oryzae,0%
same,pest or weed control at 20 ppm,Botrytis cinerea; 20 PPM,28%
same,pest or weed control at 100 ppm,Botrytis cinerea,0%
same,pest or weed control at 20 ppm,[4],67%
same,MIC,[3],0.8 µg/mL
same,responders at 150 mg/kg,[1]; [6],30%
same,responders at 150 mg/kg,[1]; [7],10%
same,responders at 150 mg/kg,[1]; [8],0%
same,pest or weed control at 20 ppm,[5]; 20 PPM,66%
same,pest or weed control at 20 ppm,Puccinia recondita; 20 PPM,100%
C=C(c1ccc(F)cc1)C(O)(Cn1cncn1)c1ccc(F)cc1 (stereo not shown) [1 HCl salt],"MIC values, A. fumigatus",[2],12.5 µg/mL
same,"MIC values, C. albicans",[3],0.05 µg/mL
C=C(c1ccc(F)cc1)C(O)(Cn1cncn1)c1ccncc1 (stereo not shown) [Example 699],MIC,[2],100 µg/mL
same,MIC,[3],50 µg/mL
C=C(c1ccc(C(C)(C)C)cc1)C(O)(Cn1cncn1)c1ccc(F)cc1 (stereo not shown) [Example 114],MIC,[2],50 µg/mL
same,MIC,[3],0.4 µg/mL
same,responders at 150 mg/kg,[1]; [6],70%
same,responders at 150 mg/kg,[1]; [7],10%
same,responders at 150 mg/kg,[1]; [8],10%
C=C(CO)C(O)(Cn1cncn1)c1ccccc1 (stereo not shown) [Example 448],pest or weed control at 100 ppm,Phytophthora infestans,0%
same,pest or weed control at 100 ppm,Rhizoctonia solani,42%
same,pest or weed control at 100 ppm,Plasmorpara viticola,0%
same,pest or weed control at 100 ppm,Pyricularia oryzae,0%
same,pest or weed control at 100 ppm,Botrytis cinerea,54%
same,pest or weed control at 100 ppm,[5]; 100 PPM,0%
same,pest or weed control at 100 ppm,Puccinia recondita; 100 PPM,16%
C=C(c1ccc(F)cc1)C(O)(c1ccc(F)cc1)C(F)n1cncn1 (stereo not shown) [Example 1258],MIC,[2],> 100 µg/mL
same,MIC,[3],1.6 µg/mL
C=C(c1ccc(F)cc1)C(O)(c1ccc(F)cc1)C(F)(F)n1cncn1 (stereo not shown) [Example 1260],MIC,[2],> 100 µg/mL
same,MIC,[3],0.8 µg/mL
C=C(c1ccccc1Cl)C(O)(Cn1cncn1)c1ccc(F)cc1F (stereo not shown) [35 HCl salt],"MIC values, A. fumigatus",[2],≤ 0.2 µg/mL
same,"MIC values, C. albicans",[3],0.03 µg/mL
